Results from patent US8883782B2, “Spiro-tetracyclic ring compounds as beta-secretase modulators and methods of use” (Amgen Inc., priority 2010, dated 2014).
Where two headings read alike, the source gives them in different places.

Experiments:
[1] = test system: Aβ40 in conditioned medium of cells stably expressing Amyloid Precursor Protein (APP); experiment: In vitro BACE cell-based assay (Aβ40 in conditioned medium, sandwich ELISA)
Procedure, shortened: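 The sandwich ELISA pairs pAb40 capture (3 h, 4 °C) with 6E10 detection (2 h, 4 °C) and a streptavidin-europium TRF read-out. Supernatants come from APP-expressing cells grown in 10% FBS DMEM.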

[2] = target: Beta Secretase enzyme (BACE) (Homo sapiens, UniProt P56817); experiment: In vitro enzymatic BACE FRET (fluorescence resonance energy transfer) assay; type: biochemical
Chain of Beta Secretase enzyme (BACE) (P56817 46-501, species assumed): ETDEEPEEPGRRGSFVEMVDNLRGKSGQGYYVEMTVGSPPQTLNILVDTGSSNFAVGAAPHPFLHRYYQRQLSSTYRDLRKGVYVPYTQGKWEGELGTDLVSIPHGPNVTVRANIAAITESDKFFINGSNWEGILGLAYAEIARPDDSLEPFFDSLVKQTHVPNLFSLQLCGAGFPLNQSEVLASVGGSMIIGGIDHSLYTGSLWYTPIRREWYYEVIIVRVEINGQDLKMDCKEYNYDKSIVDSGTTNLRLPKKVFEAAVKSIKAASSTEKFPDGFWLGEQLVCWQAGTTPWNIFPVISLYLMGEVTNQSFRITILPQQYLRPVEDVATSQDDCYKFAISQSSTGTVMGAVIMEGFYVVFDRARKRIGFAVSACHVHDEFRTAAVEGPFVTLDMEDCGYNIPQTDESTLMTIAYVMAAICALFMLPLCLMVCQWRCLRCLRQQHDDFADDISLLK
Procedure, shortened: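 Buffer 0.05 M acetate pH 4.2, 10% DMSO final, 100 uM genapol (sub-CMC); start with 50 nM FRET substrate; 1 h incubation; Tris stop; fluorescence read.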

[3] = average IC50, enzyme assay, read-out: BACE 1 FRET assay
[4] = Homo sapiens, HEK293, average IC50, read-out: HEK cell assay
[5] = Homo sapiens, HEK293, average IC50, HEK cells, read-out: HEK cell assay

| IC50 [2, 3] | IC50 [1, 4] | IC50 [1, 5] | SMILES | other results |
| --- | --- | --- | --- | --- |
| 0.0051 µM |  |  | CC1(C)C[C@H](c2cnc3c(c2)[C@]2(COC(N)=N2)c2cc(-c4cccc(C#N)c4)ccc2O3)CCO1 [Example 471, 3-((5S)-2′-amino-3-((4R)-2,2-dimethyltetrahydro-2H-pyran-4-yl)spiro[chromeno[2,3-b]pyridine-5,4′-[1,3]oxazol]-7-yl)benzonitrile] | IC50 ([1]; average IC50, HEK cells, read-out: HEK cell assay): 0.014 µM |
| 0.0012 µM | 0.016 µM |  | NC1=N[C@@]2(CS1)c1cc(-c3cnccc3F)ccc1Oc1ncc(C3=CCOCC3)cc12 [Example 768, (5S)-3-(3,6-dihydro-2H-pyran-4-yl)-7-(4-fluoro-3-pyridinyl)spiro[chromeno[2,3-b]pyridine-5,4′-[1,3]thiazol]-2′-amine] |  |
| 0.186 µM |  | 0.156 µM | Cc1cc(-c2cc(F)c3c(c2)[C@]2(COC(N)=N2)c2cc(OCC4(C)COC4)ccc2O3)ccn1 [Example 439, (4S)-4′-fluoro-7′-((3-methyl-3-oxetanyl)methoxy)-2′-(2-methyl-4-pyridinyl)spiro[1,3-oxazole-4,9′-xanthen]-2-amine] |  |
| 0.0521 µM |  | 1.13 µM | NC1=N[C@]2(CO1)c1cc(-c3cccnc3F)c(F)cc1Oc1c(F)cc(C3=CCOCC3)cc12 [Example 868, (4R)-7′-(3,6-dihydro-2H-pyran-4-yl)-3′,5′-difluoro-2′-(2-fluoro-3-pyridinyl)spiro[1,3-oxazole-4,9′-xanthen]-2-amine] |  |
| 0.002 µM | 0.0316 µM |  | Cc1ccc(-c2cc(F)c3c(c2)[C@]2(COC(N)=N2)c2cc(-c4cncc(F)c4)ccc2O3)nn1 [Example 292, (4S)-4′-fluoro-7′-(5-fluoro-3-pyridinyl)-2′-(6-methyl-3-pyridazinyl)spiro[1,3-oxazole-4,9′-xanthen]-2-amine] |  |
| 0.0006 µM | 0.007 µM |  | CC1(C)CC(=O)N(c2cc(F)c3c(c2)[C@]2(COC(N)=N2)c2cc(-c4cccnc4F)ccc2O3)C1 [Example 797, 1-((4S)-2-amino-4′-fluoro-7′-(2-fluoro-3-pyridinyl)spiro[1,3-oxazole-4,9′-xanthen]-2′-yl)-4,4-dimethyl-2-pyrrolidinone] |  |
| 0.0003 µM |  | 0.005 µM | NC1=N[C@@]2(CO1)c1cc(-c3cccnc3F)ccc1Oc1c2cc(N2CCOCC2)nc1F [Example 892, (5S)-1-fluoro-7-(2-fluoro-3-pyridinyl)-3-(4-morpholinyl)spiro[chromeno[2,3-c]pyridine-5,4′-[1,3]oxazol]-2′-amine] |  |
| 0.0004 µM |  | 0.011 µM | CC(C)(C)C#Cc1cc2c(nc1F)Oc1ccc(-c3cccnc3F)cc1[C@@]21COC(N)=N1 [Example 685, (5S)-3-(3,3-dimethyl-1-butyn-1-yl)-2-fluoro-7-(2-fluoro-3-pyridinyl)spiro[chromeno[2,3-b]pyridine-5,4′-[1,3]oxazol]-2′-amine] |  |
|  |  |  | NC1=N[C@@]2(CO1)c1cc(-c3cncc(Cl)c3)ccc1Oc1c(F)cc(C3=CCOCC3)cc12 [Example 210, (4S)-7′-(5-chloro-3-pyridinyl)-2′-(3,6-dihydro-2H-pyran-4-yl)-4′-fluorospiro[1,3-oxazole-4,9′-xanthen]-2-amine] | IC50 ([1]; Homo sapiens, HEK293, read-out: HEK cell assay (uM), average IC50, HEK cell assay): 0.003 µM; IC50 ([2]; BACE 1 FRET assay (uM)): 0.0003 µM |
| 0.0074 µM |  | 0.0287 µM | Cc1cc(-c2ccc3c(c2)[C@@]2(COC(N)=N2)c2cc(C#CC4(C)COC4)cnc2O3)cnc1F [Example 468, (5S)-7-(6-fluoro-5-methyl-3-pyridinyl)-3-((3-methyl-3-oxetanyl)ethynyl)spiro[chromeno[2,3-b]pyridine-5,4′-[1,3]oxazol]-2′-amine] |  |
| 0.0054 µM |  | 0.06 µM | Cc1ccc(-c2cnc3c(c2)[C@]2(CSC(N)=N2)c2cc(C#CC4(C)COC4)ccc2O3)cn1 [Example 940, (5S)-7-((3-methyl-3-oxetanyl)ethynyl)-3-(6-methyl-3-pyridinyl)spiro[chromeno[2,3-b]pyridine-5,4′-[1,3]thiazol]-2′-amine] |  |
| 0.0008 µM |  | 0.012 µM | NC1=N[C@@]2(CO1)c1cc(-c3cccnc3F)ccc1Oc1c(F)cc(-c3ccnnc3)cc12 [Example 686, (4S)-4′-fluoro-7′-(2-fluoro-3-pyridinyl)-2′-(4-pyridazinyl)spiro[1,3-oxazole-4,9′-xanthen]-2-amine] |  |
| 0.0037 µM |  | 0.036 µM | Cn1cc(-c2cnc3c(c2)[C@]2(CSC(N)=N2)c2cc(-c4cccnc4)ccc2O3)cn1 [Example 960, (5S)-3-(1-methyl-1H-pyrazol-4-yl)-7-(3-pyridinyl)spiro[chromeno[2,3-b]pyridine-5,4′-[1,3]thiazol]-2′-amine] |  |
| 0.0075 µM | 0.0825 µM |  | COc1ncc(-c2cc(F)c3c(c2)[C@]2(COC(N)=N2)c2cc(-c4cncc(F)c4)ccc2O3)cn1 [Example 293, (4S)-4′-fluoro-7′-(5-fluoro-3-pyridinyl)-2′-(2-methoxy-5-pyrimidinyl)spiro[1,3-oxazole-4,9′-xanthen]-2-amine] |  |
| 0.136 µM |  | 1.08 µM | NC1=N[C@@]2(CO1)c1cc(-c3ccc(F)cc3)ccc1Oc1cnc(-c3cncnc3)cc12 [Example 396, (5S)-7-(4-fluorophenyl)-3-(5-pyrimidinyl)spiro[chromeno[2,3-c]pyridine-5,4′-[1,3]oxazol]-2′-amine] |  |
| 0.356 µM | 0.457 µM |  | NC1=N[C@@]2(CO1)c1cc(C3=CCOCC3)cnc1Oc1ccc(-c3cccnc3F)c(F)c12 [Example 347, (5S)-3-(3,6-dihydro-2H-pyran-4-yl)-6-fluoro-7-(2-fluoro-3-pyridinyl)spiro[chromeno[2,3-b]pyridine-5,4′-[1,3]oxazol]-2′-amine] |  |
| 0.0073 µM | 0.0626 µM |  | NC1=N[C@@]2(CO1)c1cc(-c3cncc(F)c3)ccc1Oc1cnc([C@@H]3CCCCO3)cc12 [Example 381, (5S)-7-(5-fluoro-3-pyridinyl)-3-((2S)-tetrahydro-2H-pyran-2-yl)spiro[chromeno[2,3-c]pyridine-5,4′-[1,3]oxazol]-2′-amine] |  |
| 0.0049 µM | 0.0118 µM |  | NC1=N[C@@]2(CO1)c1cc(-c3ccc(F)nc3)ccc1Oc1c(F)cc(N3CCOCC3)cc12 [Example 202, (4S)-4′-fluoro-7′-(6-fluoro-3-pyridinyl)-2′-(4-morpholinyl)spiro[1,3-oxazole-4,9′-xanthen]-2-amine] |  |
| 0.0004 µM |  | 0.006 µM | N#Cc1cccc(-c2ccc3c(c2)[C@@]2(COC(N)=N2)c2cc(N4CC[C@@H](F)C4)nc(F)c2O3)c1 [Example 919, 3-((5S)-2′-amino-1-fluoro-3-((3R)-3-fluoro-1-pyrrolidinyl)spiro[chromeno[2,3-c]pyridine-5,4′-[1,3]oxazol]-7-yl)benzonitrile] |  |
| 0.0042 µM |  | 0.078 µM | COc1nc(N2CCC(F)(F)CC2)cc2c1Oc1ccc(-c3cccnc3F)cc1[C@@]21COC(N)=N1 [Example 849, (5S)-3-(4,4-difluoro-1-piperidinyl)-7-(2-fluoro-3-pyridinyl)-1-methoxyspiro[chromeno[2,3-c]pyridine-5,4′-[1,3]oxazol]-2′-amine] |  |
| 0.0066 µM |  | 0.358 µM | NC1=N[C@@]2(CO1)c1cc(-c3cccnc3F)ccc1Oc1c2cc(Cl)nc1F [Example 488, (5S)-3-chloro-1-fluoro-7-(2-fluoro-3-pyridinyl)spiro[chromeno[2,3-c]pyridine-5,4′-[1,3]oxazol]-2′-amine] |  |
| 0.0173 µM | 0.173 µM |  | CC1(C#Cc2cc3c(cn2)Oc2ccc(-c4ccccc4)cc2[C@@]32COC(N)=N2)COC1 [Example 155, (5S)-3-((3-methyl-3-oxetanyl)ethynyl)-7-phenylspiro[chromeno[2,3-c]pyridine-5,4′-[1,3]oxazol]-2′-amine] |  |
| 0.0013 µM | 0.014 µM |  | CC1(C)C=C(c2cc3c(c(F)n2)Oc2ccc(-c4cccnc4F)cc2[C@]32CSC(N)=N2)CCO1 [Example 1035, (5R)-3-(6,6-dimethyl-3,6-dihydro-2H-pyran-4-yl)-1-fluoro-7-(2-fluoro-3-pyridinyl)spiro[chromeno[2,3-c]pyridine-5,4′-[1,3]thiazol]-2′-amine] |  |
| 0.0991 µM | 0.191 µM |  | Cc1ncccc1-c1ccc2c(c1)[C@@]1(COC(N)=N1)c1cc(-c3ccnc(F)c3)ncc1O2 [Example 248, (5S)-3-(2-fluoro-4-pyridinyl)-7-(2-methyl-3-pyridinyl)spiro[chromeno[2,3-c]pyridine-5,4′-[1,3]oxazol]-2′-amine] |  |
| 1 µM |  | 6.67 µM | COc1ccc2c(c1)[C@@]1(COC(N)=N1)c1cc(-n3ccc(C)n3)cc(F)c1O2 [Example 664, (4S)-4′-fluoro-7′-methoxy-2′-(3-methyl-1H-pyrazol-1-yl)spiro[1,3-oxazole-4,9′-xanthen]-2-amine] |  |
| 0.0214 µM |  | 0.184 µM | Cc1ccnn1-c1cc(F)c2c(c1)[C@]1(COC(N)=N1)c1cc(O)ccc1O2 [Example 631, (4S)-2-amino-5′-fluoro-7′-(5-methyl-1H-pyrazol-1-yl)spiro[1,3-oxazole-4,9′-xanthen]-2′-ol] |  |
| 0.0002 µM | 0.003 µM |  | NC1=N[C@@]2(CO1)c1cc(-c3cccnc3F)ccc1Oc1c(F)cc(C3=C(Cl)COCC3)cc12 [Example 805, (4S)-2′-(5-chloro-3,6-dihydro-2H-pyran-4-yl)-4′-fluoro-7′-(2-fluoro-3-pyridinyl)spiro[1,3-oxazole-4,9′-xanthen]-2-amine] |  |

| SMILES | IC50 [2, 3] | IC50 [1, 4] | IC50 [1, 5] | other results |
| --- | --- | --- | --- | --- |
| Cc1cc(-c2cc3c(c(F)n2)Oc2ccc(-c4cccnc4F)cc2[C@]32CSC(N)=N2)ccn1 (racemic) [Example 1032, (5R)-1-fluoro-7-(2-fluoro-3-pyridinyl)-3-(2-methyl-4-pyridinyl)spiro[chromeno[2,3-c]pyridine-5,4′-[1,3]thiazol]-2′-amine, (5S)-1-fluoro-7-(2-fluoro-3-pyridinyl)-3-(2-methyl-4-pyridinyl)spiro[chromeno[2,3-c]pyridine-5,4′-[1,3]thiazol]-2′-amine] | 0.0004 µM |  |  | IC50 ([1]; read-out: HEK cell assay): 0.003 µM |
